These results are taken from patent US20230285570A1, “THERAPEUTICALLY USEFUL CURE-PRO MOLECULES FOR E3 LIGASE MEDIATED DEGRADATION OF PROTEINS, AND METHODS OF MAKING AND USING THEM” (CORNELL UNIVERSITY, priority 2020, published 2023).

Entries after “also recorded” stand apart in the source; their conditions may differ.

The target in assay [1] is T1, c-MYC (Homo sapiens, UniProt P01106). The assay can be described thus: Summary of C-MYC degradation by CURE-PRO pairs, estimated from Western Blot or WES. Conditions: for Degradation of C-MYC, combination with CRBN ligand 8049: Table 10, aromatic 1,2-diol MYC ligand + 8049; for Degradation of C-MYC, combination with CRBN ligand 8048: Table 10, aromatic 1,2-diol MYC ligand + 8048; for Degradation of C-MYC, combination with CRBN ligand 8047: Table 7, aryl-boronic acid MYC ligand + 8047; for Degradation of C-MYC, combination with CRBN ligand 8046: Table 7, aryl-boronic acid MYC ligand + 8046. In kind it is cell-based. The arrangement: endogenous in cells; host or cells: HT29. How it is done:
(§1) Namalwa, Ramosm HeLa, MCF7, or HT29 HCT116 cells (2.5-3×10^6) were treated for 24 hours with the indicated compounds solubilized in DMSO. The cells were washed in ice-cold PBS and were then lysed in RIPA lysis buffer (150 mM NaCl, 5 mM EDTA, 1% NP-40, 0.5% sodium deoxycholate, 0.1% SDS, 50 mM Tris, pH 8.0.) with Roche protease inhibitor complete cocktail and phosphatase inhibitors (10 mM sodium fluoride, 10 mM sodium pyrophosphate, 1 mM sodium orthovanadate and 20 mM β-glycerophosphate). The total protein concentrations were determined by Bradford Protein Assay (Pierce) and 10-20 μg of protein was loaded onto 4-15% Tris-Glycine gradient gels (Biorad). After standard gel electrophoresis, the separated proteins were transferred to PVDF membrane by wet transfer. The immunoblots were then blocked for 1 hour in 5% skim milk in TBST or 5% BSA in TBST, according to manufacturer's instructions, before an overnight incubation at 4° C. with indicated antibodies and membranes. Membranes were then incubated with the appropriate horseradish peroxidase-conjugated secondary antibodies (1:5,000 dilution) for 1 h at room temperature and the bands were visualized using the Clarity Max Western ECL Substrate (Biorad) and the ChemiDoc Imaging System (Biorad). Signal was detected with ECL Western Blotting Substrate (Pierce) and X-ray film processed with a Konica SRX-101 X-ray film processor or captured by Bio-Rad's Chemidoc Imaging system.
WES Simple analysis was performed on WES system (ProteinSimple-Biotechne) according to the manufacturer's instructions. Total protein concentrations of cell lysates were determined by the Pierce BCA kit (Thermo Fisher). 3 μL of 0.3 μg/μL of the protein lysate was loaded onto a 12- to 230-kDa WES assay plate (ProteinSimple) where 300 nL sample was withdrawn through a capillary, subjected to electrophoretic separation of proteins by size, and followed by the simultaneous, HRP-based detection of proteins using the Anti-Rabbit Detection Module (Proteinsimple: #DM-001). The electropherograms were checked then the automatic peak detection was manually corrected if it was required.
A black check mark indicates efficacy of 30% to 70% or higher protein degradation.

In assay [2] the target is T1, c-MYC. Description: CURE-PRO-mediated c-MYC degradation in HT29 cells, Western blot. In kind it is cell-based. Set-up: endogenous in cells; host or cells: HT29. As to the method:
as §1
HT29 cells (2.5×10^6) were treated for 24 h with the compounds solubilized in DMSO. Compounds were added at 10 nM-10 μM each, as indicated in the description of the figures. Standardized protein samples were electrophoresed and imaged as described in the immunoblotting section above. c-MYC monomers (10058-F4 derivatives comprising catechol linkers), and CRBN ligands, 8048 and 8049 (pomalidomide derivatives comprising boronic acid linkers) combined in a 1:1 ratio.
HT29 cells (2.5×10^6) were treated for 24 h with the compounds solubilized in DMSO. Compounds were added at 100 nM-10 μM each.
HT29 cells (2.5×10^6) were treated for 24 h with the compounds solubilized in DMSO. Compounds were added at 100 nM-10 μM each. Standardized protein samples were electrophoresed and imaged as described in the immunoblotting section above. c-MYC monomer, MYC-E1, (a 10058-F4 derivative comprising boronic acid linkers), and CRBN ligands, 8046, 8047 and 8066 (pomalidomide derivatives comprising diol linkers) combined in a 1:1 ratio.
HT29 cells (2.5×10^6) were treated for 24 h with the compounds solubilized in DMSO. Compounds were added at 100 nM-10 μM each. Standardized protein samples were electrophoresed and imaged as described in the immunoblotting section above. c-MYC monomers, MYC-E6 (FIG. 90), MYC-E10 (FIG. 91), and MYC-E16 (FIG. 92) (10074-G5 derivatives comprising boronic acid linkers), and CRBN ligands, 8046, 8047 and 8066 (pomalidomide derivatives comprising diol linkers) combined in a 1:1 ratio.
HT29 cells (2.5×10^6) were treated for 24 h with the compounds solubilized in DMSO. Compounds were added at 10 nM-10 μM each. Standardized protein samples were electrophoresed and imaged as described in the immunoblotting section above. c-MYC monomer, MYC-N16 (FIG. 93) (10074-G5 derivatives comprising diol linkers), and VHL ligands, 8297 and 8298 (VH-298 derivatives comprising boronic acid linkers) were combined in a 1:1 ratio.
HT29 cells (2.5×10^6) were treated for 24 h with the compounds solubilized in DMSO. Compounds were added at 10 nM-10 μM each. Standardized protein samples were electrophoresed and imaged as described in the immunoblotting section above. c-MYC monomers, MYC-E7 (FIG. 96), MYC-E10 (FIG. 97), and MYC-E17 (FIG. 98), (10074-G5 derivatives comprising boronic acid linkers), and VHL ligands, 8297 and 8298 (VH-298 derivatives comprising diol linkers) were combined in a 1:1 ratio.
On the technique in general: In western blotting, separated proteins are transferred to a membrane and probed.

The mark [3] stands for this setting: 1:1 with CRBN ligand 8048, HT29, 24 h, 10 nM-10 μM each.
Where [4] appears, read: c-MYC monomer alone, HT29, 24 h, 10 nM-10 μM.
Where [5] appears, read: 1:1 with CRBN ligand 8047, HT29, 24 h, 100 nM-10 μM each.
[6] abbreviates: 1:1 with CRBN ligand 8046, HT29, 24 h, 100 nM-10 μM each.
Where [7] appears, read: 1:1 with CRBN ligand 8066, HT29, 24 h, 100 nM-10 μM each.

T1 sequence (P01106 whole entry): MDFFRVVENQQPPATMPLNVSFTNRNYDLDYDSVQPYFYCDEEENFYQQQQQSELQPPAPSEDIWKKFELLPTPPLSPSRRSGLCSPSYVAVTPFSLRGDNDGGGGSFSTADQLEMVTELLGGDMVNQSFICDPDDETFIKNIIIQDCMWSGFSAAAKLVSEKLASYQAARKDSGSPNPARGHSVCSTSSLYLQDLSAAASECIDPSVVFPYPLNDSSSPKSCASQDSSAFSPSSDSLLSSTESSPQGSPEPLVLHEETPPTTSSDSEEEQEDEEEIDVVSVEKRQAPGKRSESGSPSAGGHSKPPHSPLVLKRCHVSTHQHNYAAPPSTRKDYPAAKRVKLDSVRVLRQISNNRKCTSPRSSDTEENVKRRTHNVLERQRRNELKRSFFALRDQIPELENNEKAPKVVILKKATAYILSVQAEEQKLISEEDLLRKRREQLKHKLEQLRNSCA

With `CCc1ccc(/C=C2\SC(=O)N(CCNC(=O)c3ccc(O)c(O)c3)C2=O)cc1` [MYC-N7], the “Degradation of C-MYC, combination with CRBN ligand 8049” value on c-MYC [1] is “√ (A black check mark indicates efficacy of 30% to 70% or higher protein degradation)”. Further, the c-MYC degradation entry at c-MYC [2] (setting [3]) is “cause c-MYC protein degradation; also recorded: caused degradation of c-MYC”; at c-MYC [2] (1:1 with CRBN ligand 8049, HT29, 24 h, 10 nM-10 μM each), “cause c-MYC protein degradation; also recorded: caused degradation of c-MYC”; on c-MYC [2] (setting [4]), “there is no degradation of c-MYC”.
In the case of `CCc1ccc(/C=C2\SC(=O)N(CCc3cccc(O)c3O)C2=O)cc1` [MYC-N4], on c-MYC [1], the “Degradation of C-MYC, combination with CRBN ligand 8048” value (“Degradation … with CRBN ligand 8048” below) is listed as “√ (A black check mark indicates efficacy of 30% to 70% or higher protein degradation)”. For the same compound, the c-MYC degradation result is “caused c-MYC degradation” at c-MYC [2] (setting [3]) and “there is no degradation of c-MYC” on c-MYC [2] (setting [4]).
For `CCc1ccc(/C=C2\SC(=O)N(CC[C@H]3C[C@@H]4C[C@H]3[C@@H](O)[C@H]4O)C2=O)cc1` [MYC-N23], the “Degradation of C-MYC, combination with CRBN ligand 8049” value at c-MYC [1] is listed as “√ (A black check mark indicates efficacy of 30% to 70% or higher protein degradation)”. Besides, the c-MYC degradation result at c-MYC [2] (setting [3]) is “caused c-MYC degradation”; at c-MYC [2] (setting [4]) it was “there is no degradation of c-MYC”.
Regarding `Cc1ccc(CNC(=O)c2ccccc2Nc2ccc([N+](=O)[O-])c3nonc23)cc1B(O)O` [MYC-E16], on c-MYC [1], the “Degradation of C-MYC, combination with CRBN ligand 8047” value is given as “√ (A black check mark indicates efficacy of 30% to 70% or higher protein degradation)”. Further, the c-MYC degradation result at c-MYC [2] (setting [5]) is “Some degradation is seen; also recorded: caused c-MYC degradation”.
In the case of `CCc1ccc(/C=C2\CC(=O)N(CCNC(=O)[C@H]3C[C@@H]4C[C@H]3[C@@H](O)[C@H]4O)C2=O)cc1` [MYC-N29], the “Degradation … with CRBN ligand 8048” value on c-MYC [1] is “√ (A black check mark indicates efficacy of 30% to 70% or higher protein degradation)”. Moreover, the figures for the c-MYC degradation entry on c-MYC [2] (setting [3]) and on c-MYC [2] (setting [4]) were “caused c-MYC degradation” and “there is no degradation of c-MYC”, respectively.
`CCc1ccc(/C=C2\SC(=O)N(Cc3cccc(B(O)O)c3)C2=O)cc1` [MYC-E1]: the “Degradation of C-MYC, combination with CRBN ligand 8046” value on c-MYC [1] is “√ (A black check mark indicates efficacy of 30% to 70% or higher protein degradation)”. The “Degradation of C-MYC, combination with CRBN ligand 8066” value at c-MYC [1] (Table 7, aryl-boronic acid MYC ligand + 8066) is reported as “√ (A black check mark indicates efficacy of 30% to 70% or higher protein degradation)”. Moreover, the c-MYC degradation result is on record as “Some degradation is seen; also recorded: causes degradation of c-MYC” on c-MYC [2] (setting [6]), “Some degradation is seen; also recorded: no degradation was observed” on c-MYC [2] (setting [5]) and “no degradation was observed” at c-MYC [2] (setting [7]).
As for `O=[N+]([O-])c1ccc(Nc2ccccc2-c2ccc(B(O)O)cc2)c2nonc12` [MYC-E6], the “Degradation of C-MYC, combination with CRBN ligand 8046” value at c-MYC [1] is “√ (A black check mark indicates efficacy of 30% to 70% or higher protein degradation)”. Besides, the “Degradation of C-MYC, combination with CRBN ligand 8047” value at c-MYC [1] is “√ (A black check mark indicates efficacy of 30% to 70% or higher protein degradation)”. Further, the c-MYC degradation entry on c-MYC [2] (setting [6]) is “no degradation was observed”; at c-MYC [2] (setting [5]), “caused degradation of c-MYC”; on c-MYC [2] (setting [7]), “no degradation was observed”.
`O=C(NCc1cccc(O)c1O)c1ccccc1Nc1ccc([N+](=O)[O-])c2nonc12` [MYC-N16]: the “Degradation … with CRBN ligand 8048” value on c-MYC [1] was “√ (A black check mark indicates efficacy of 30% to 70% or higher protein degradation)”. For the same compound, on c-MYC [1] (Table 11, aromatic 1,2-diol MYC ligand + 8312), the “Degradation of C-MYC, combination with MDM2 ligand 8312” value is on record as “√ (A black check mark indicates efficacy of 30% to 70% or higher protein degradation)”. Besides, the “Degradation of C-MYC, combination with VHL ligand 8297” value on c-MYC [1] (Table 12, aromatic 1,2-diol MYC ligand + 8297) is “√ (A black check mark indicates efficacy of 30% to 70% or higher protein degradation)”. On c-MYC [1] (Table 12, aromatic 1,2-diol MYC ligand + 8298), the “Degradation of C-MYC, combination with VHL ligand 8298” value is on record as “√ (A black check mark indicates efficacy of 30% to 70% or higher protein degradation)”. The c-MYC degradation entry at c-MYC [2] (setting [3]) is recorded as “caused c-MYC degradation”; on c-MYC [2] (1:1 with VHL ligand 8297, HT29, 24 h, 10 nM-10 μM each), “caused degradation of c-MYC”; on c-MYC [2] (1:1 with VHL ligand 8298, HT29, 24 h, 10 nM-10 μM each), “caused degradation of c-MYC”; on c-MYC [2] (setting [4]), “there is no degradation of c-MYC; also recorded: no loss of c-MYC protein was observed”.
